Source: US6967192B2, “Seventeen amino acid peptide (Peptide P) for treating ischemia and reperfusion injury” (University of Kentucky Research Foundation, priority 2001, dated 2005)
Several values for one entry are separate records, joined by “and”; a condition that tells them apart may be missing. Equal values may be shown once.

Tested on: murine model of ischemia/reperfusion injury (cerebral ischemia)
Assay: Murine ischemia/reperfusion model: brain infarct size/volume by TTC staining
Type: in vivo, mouse
Design: Damaged Cross Section Area (sum of sections), individual mice: unit: mm^2
Conditions: for infarct size (Damaged %), Average: 4 mg/Kg I.V. 1 hr after occlusion, 1 hr ischemia; for infarct size (Damaged %), Average / infarct volume (Corrected Volume), Average: mean ± SEM
[1] = 4 mg/Kg after 1 hr ischemia, 24 hr reperfusion, n=6
[2] = 4 mg/Kg after 1 hr ischemia, 24 hr reperfusion, mice No. 1-6, listed as Pep-P

Tyr-D-Ala-Phe-Ala-Asp-Val-Ala-Ser-Thr-Ile-Gly-Asp-Phe-Phe-His-Ser-Ile-NH2 (AFADVASTIGDFFHSI; D-Ala, C-terminal amide; printed: Ala-Phe-Ala-Asp-Val-Ala-Ser-Thr-Ile-Gly-Asp-Phe-Phe-His-Ser-Ile-) [Peptide P, linear 17 amino acid peptide with alanine as D-isomer]
infarct size (Damaged %), Average (24 hr reperfusion, n=6): 16.87+/−3.3%
infarct size (Damaged %), Average (24 hr reperfusion, n=6, listed as Pep-P): 16.87 ± 3.3%
infarct volume (Corrected Volume), Average [1]: 24±4.8 mm^3
infarct volume (Corrected Volume), Average (4 mg/Kg after 1 hr ischemia, 24 hr reperfusion, n=6, listed as Pep-P): 23.74 ± 4.8% mm^3
Corrected Volume, individual mice (4 mg/Kg after 1 hr ischemia, 24 hr reperfusion, mice No. 1-6, Damaged Cross Section Area × 2 mm section, listed as Pep-P): 35.32 mm^3 and 5.10 mm^3 and 16.98 mm^3 and 35.86 mm^3 and 25.84 mm^3 and 23.36 mm^3
Damaged %, individual mice [2]: 25.77% and 3.94% and 12.69% and 24.58% and 18.16% and 16.10%
Damaged Cross Section Area (sum of sections), individual mice [2]: 17.66 and 2.55 and 8.49 and 17.93 and 12.92 and 11.68
Damaged Cross Section Area (sum of sections), Average [1]: 11.87 ± 2.4%
reduction of infarct volume compared to control animals (4 mg/kg, after 24 h of reperfusion): 59%
Damaged Cross Section Area 1, individual mice (brain section 1, 4 mg/Kg after 1 hr ischemia, 24 hr reperfusion, listed as Pep-P, 4 mg/kg): 3.69 and 0 (2×) and 1.42 and 1.89 and 0.27
Damaged Cross Section Area 2, individual mice (brain section 2, 4 mg/Kg after 1 hr ischemia, 24 hr reperfusion, listed as Pep-P, 4 mg/kg): 5.66 and 0.32 and 1.38 and 3.27 and 4.59 and 1.8
Damaged Cross Section Area 3, individual mice (brain section 3, 4 mg/Kg after 1 hr ischemia, 24 hr reperfusion, listed as Pep-P, 4 mg/kg): 6.47 and 1.12 and 2.63 and 7.23 and 2.22 and 5.15
Damaged Cross Section Area 4, individual mice (brain section 4, 4 mg/Kg after 1 hr ischemia, 24 hr reperfusion, listed as Pep-P, 4 mg/kg): 1.84 and 1.11 and 3.06 and 5.54 and 6.11 and 4.46
